Source: US9133207B2, “Tetrandrine derivatives with substituted 5-carbon, preparation method and use thereof” (Hangzhou Bensheng Pharmaceutical Co., Ltd., priority 2011, dated 2015)
In brackets after ≈: the same amount, converted by molar mass.

What was measured:
[1] = system: MGC 803 (human gastric cancer cell); assay: Solid tumor cell growth inhibition, MTT, 72 h (Example 7); type: cell-based; conditions: Homo sapiens
Experimental: (§1) Human solid tumor cell lines: Hep-2 (laryngeal carcinoma), A549 (human lung cancer), CaES-17 (esophageal cancer cell), PC-3 (prostate cancer), CNE (nasopharyngeal carcinoma cell) and SK-OV-3 (ovarian cancer cell), all of which are purchased from China Center For Type Culture Collection; RKO (human colon adenocarcinoma cell), MGC 803 (human gastric cancer cell), MG63 (osteosarcoma), and U87 MG (malignant glioma cell), all of which are purchased from Fuxiang Bio-tech Co. Ltd., Shanghai, China; PANC-1 (pancreatic cancer), Huh? (human liver cancer cell), Becap37 (human breast cancer cell), and Hela (human cervical cancer cell), all of which are donated by Cancer Research Institute of Zhejiang University, China.
(§2) Reagents: the same as in Example 5.
(§3) Obtaining 4000 well-growing human solid tumor cells and inoculating them into wells of a 96-well cell culture plate. The culture medium is DMEM High Glucose cell culture medium containing 10% fetal bovine serum. The plate is placed in a carbon dioxide cell incubator (5% CO2) at 37° C. and incubated for 24 hours. After been added with tetrandrine derivatives of different concentration and mixing uniformly, the plate is placed in a carbon dioxide cell incubator (5% CO2) at 37° C. and incubated for 72 hours. Then the viable cell concentration is determined by the MTT method and the cell viability (%) after drug treatment is calculated. In this experiment, the cell viability of control group (not treated with any compound) is set as 100%.

A549 (human lung cancer) = assay: as above; type: cell-based; conditions: Homo sapiens; 72 h, MTT, A549
Experimental: as §1, §2, §3

[2] = system: Huh7 (human liver cancer cell); assay: as above; type: cell-based; conditions: Homo sapiens; 72 h, MTT, Huh-7
Experimental: as §1, §2, §3

[3] = system: RKO (human colon adenocarcinoma cell); assay: as above; type: cell-based; conditions: Homo sapiens; 72 h, MTT, RKO
Experimental: as §1, §2, §3

[4] = system: Becap37 (human breast cancer cell); assay: as above; type: cell-based; conditions: Homo sapiens; 72 h, MTT, Becap-37
Experimental: as §1, §2, §3

PC-3 (prostate cancer) = assay: as above; type: cell-based, human; conditions: Homo sapiens; 72 h, MTT, PC-3
Experimental: as §1, §2, §3

MG63 (osteosarcoma) = assay: as above; type: cell-based, human; conditions: Homo sapiens; 72 h, MTT, MG-63
Experimental: as §1, §2, §3

[5] = system: CaES-17 (esophageal cancer cell); assay: as above; type: cell-based, human; conditions: Homo sapiens, CaEs17; 72 h, MTT, CAES-17
Experimental: as §1, §2, §3

[6] = system: PANC-1 (pancreatic cancer); assay: as above; type: cell-based, human; conditions: Homo sapiens; 72 h, MTT, PANC-1
Experimental: as §1, §2, §3

[7] = system: Kasumi-1 (acute myeloid leukemia M2 type, AML-M2); assay: Leukemia cell growth inhibition, MTT, 72 h (Example 5); type: cell-based, human; conditions: Homo sapiens, Kasumi 1
Text: (§4) Leukemia cell lines: leukemia cell lines: K562/adr (drug-resistant, chronic myeloid leukemia, CML), NB4 (acute promyelocytic leukemia, AML), Kasumi-1 (acute myeloid leukemia M2 type, AML-M2), Jurkat (acute lymphoblastic leukemia, ALL), all of which are donated by Cancer Research Institute of Zhejiang University, China; and H9 (acute lymphoblastic leukemia, ALL), which is purchased from China Center for Type Culture Collection.
(§5) Reagents: The standard sample of tetrandrine (TTD) is purchased from Ci Yuan Biotechnology Co., Ltd., Shaanxi, China; and the 5-substituted tetrandrine derivatives of the present invention.
(§6) Obtaining 6000 well-growing leukemia cells and inoculating them into wells of a 96-well cell culture plate. The culture medium is a 1640 cell culture medium containing 10% fetal bovine serum. After adding the tetrandrine derivatives of different concentrations and mixing uniformly, placing the plate in a carbon dioxide cell incubator (5% CO2) at 37° C. and incubating for 72 hours. Then the viable cell concentration is determined by the MTT method.

[8] = system: H9 (acute lymphoblastic leukemia, ALL); assay: as above; type: cell-based, human; conditions: Homo sapiens; 72 h, MTT
Text: as §4, §5, §6

[9] = system: NB4 (acute promyelocytic leukemia, AML); assay: as above; type: cell-based, human; conditions: Homo sapiens; 72 h, MTT
Text: as §4, §5, §6

[10] = system: Jurkat (acute lymphoblastic leukemia, ALL); assay: as above; type: cell-based, human; conditions: Homo sapiens, Jurkat; 72 h, MTT
Text: as §4, §5, §6

[11] = system: K562/adr (drug-resistant, chronic myeloid leukemia, CML); assay: as above; type: cell-based, human; conditions: for IC50 / IC90: Homo sapiens, K562/Adr, 72 h, MTT
Text: as §4, §5, §6

[12] = system: RPMI8226 (multiple myeloma); assay: Multiple myeloma cell growth inhibition, MTT, 72 h (Example 6); type: cell-based, human; conditions: for IC50 / IC90: Homo sapiens, RPMI-8226, 72 h, MTT, RPMI8226
Experimental: Multiple myeloma and lymphoma cell lines: RPMI8226 (multiple myeloma), purchased from Fuxiang Bio-tech Co. Ltd., Shanghai, China.
as §2
as §6, with “incubated” for “incubating”

SMILES | IC50 [1] | IC90 [1] | IC50 (A549 (human lung cancer)) | IC90 (A549 (human lung cancer)) | IC50 [2] | IC90 [2] | IC50 [4] | IC90 [4] | IC50 (MG63 (osteosarcoma)) | IC90 (MG63 (osteosarcoma)) | IC50 [5] | IC90 [5] | IC50 [6] | IC90 [6] | IC50 [7] | IC90 [7] | IC50 [8] | IC90 [8] | IC50 [10] | IC90 [10] | further results
COc1ccc2cc1Oc1ccc(cc1)C[C@H]1c3cc(c(OC)cc3CCN1C)Oc1c(OC)c(OC)c(CN3CCOCC3)c3c1[C@H](C2)N(C)CC3 [BS-TE-307] | 3.74 µg/mL (≈ 5.18 µM) | 14.1 µg/mL (≈ 19.6 µM) | 2.3 µg/mL (≈ 3.19 µM) | 8 µg/mL (≈ 11.1 µM) | 3 µg/mL (≈ 4.16 µM) | 4.9 µg/mL (≈ 6.79 µM) | 1.79 µg/mL (≈ 2.48 µM) | 6.94 µg/mL (≈ 9.61 µM) | 0.82 µg/mL (≈ 1.14 µM) | 2.32 µg/mL (≈ 3.21 µM) | 1.1 µg/mL (≈ 1.52 µM) | 18.8 µg/mL (≈ 26.1 µM) | 3.47 µg/mL (≈ 4.81 µM) | 8.88 µg/mL (≈ 12.3 µM) | 1 µg/mL (≈ 1.39 µM) | 4.79 µg/mL (≈ 6.64 µM) | 0.87 µg/mL (≈ 1.21 µM) | 1.99 µg/mL (≈ 2.76 µM) | 3.08 µg/mL (≈ 4.27 µM) | 13.2 µg/mL (≈ 18.4 µM) | IC50 [3]: 0.95 µg/mL (≈ 1.32 µM); IC90 [3]: 3.27 µg/mL (≈ 4.53 µM); IC50 (PC-3 (prostate cancer)): 2.88 µg/mL (≈ 3.99 µM); IC90 (PC-3 (prostate cancer)): 6.99 µg/mL (≈ 9.68 µM); IC50 [9]: 0.73 µg/mL (≈ 1.01 µM); IC90 [9]: 4.35 µg/mL (≈ 6.03 µM); IC50 [11]: 0.25 µg/mL (≈ 0.346 µM); IC90 [11]: 7.8 µg/mL (≈ 10.8 µM); IC50 [12]: 0.07 µg/mL (≈ 0.097 µM); IC90 [12]: 0.42 µg/mL (≈ 0.582 µM)
COc1ccc2cc1Oc1ccc(cc1)C[C@H]1c3cc(c(OC)cc3CCN1C)Oc1c(OC)c(OC)c(CN3CC=CC3)c3c1[C@H](C2)N(C)CC3 [BS-TE-329] | 1.26 µg/mL (≈ 1.79 µM) | 1.82 µg/mL (≈ 2.59 µM) | 2.36 µg/mL (≈ 3.35 µM) | 4.77 µg/mL (≈ 6.78 µM) | 8.16 µg/mL (≈ 11.6 µM) | 15.9 µg/mL (≈ 22.5 µM) | 1.62 µg/mL (≈ 2.3 µM) | 2.48 µg/mL (≈ 3.52 µM) | 6.87 µg/mL (≈ 9.76 µM) | 35.6 µg/mL (≈ 50.6 µM) | 7.2 µg/mL (≈ 10.2 µM) | 26.5 µg/mL (≈ 37.6 µM) | > 10 µg/mL | > 10 µg/mL | 0.5 µg/mL (≈ 0.71 µM) | 3.4 µg/mL (≈ 4.83 µM) | 1.19 µg/mL (≈ 1.69 µM) | 2 µg/mL (≈ 2.84 µM) | 0.91 µg/mL (≈ 1.29 µM) | 3.31 µg/mL (≈ 4.7 µM) | IC50 [9]: 2.05 µg/mL (≈ 2.91 µM); IC90 [9]: 3.9 µg/mL (≈ 5.54 µM); IC50 [11]: 0.1 µg/mL (≈ 0.142 µM); IC90 [11]: 1.33 µg/mL (≈ 1.89 µM); anti-K562/adr activity increase over tetrandrine ([11]; compared with tetrandrine): ~4 fold; IC50 [12]: 0.004 µg/mL (≈ 0.00568 µM); IC90 [12]: 0.29 µg/mL (≈ 0.412 µM); anti-RPMI8226 activity increase over tetrandrine ([12]; compared with tetrandrine): ~90 fold
COc1ccc2cc1Oc1ccc(cc1)C[C@H]1c3cc(c(OC)cc3CCN1C)Oc1c(OC)c(OC)c(Cn3cccn3)c3c1[C@H](C2)N(C)CC3 [BS-TE-330] | 1.61 µg/mL (≈ 2.29 µM) | 6.48 µg/mL (≈ 9.22 µM) | 5.44 µg/mL (≈ 7.74 µM) | 16 µg/mL (≈ 22.7 µM) | 2.96 µg/mL (≈ 4.21 µM) | 4.9 µg/mL (≈ 6.97 µM) | 6 µg/mL (≈ 8.54 µM) | 12 µg/mL (≈ 17.1 µM) | 1.96 µg/mL (≈ 2.79 µM) | 4.38 µg/mL (≈ 6.23 µM) | 2.4 µg/mL (≈ 3.41 µM) | 7.94 µg/mL (≈ 11.3 µM) | 6.17 µg/mL (≈ 8.78 µM) | 9.8 µg/mL (≈ 13.9 µM) | 1.45 µg/mL (≈ 2.06 µM) | 6.95 µg/mL (≈ 9.89 µM) | 2.03 µg/mL (≈ 2.89 µM) | 4.03 µg/mL (≈ 5.73 µM) | 2.37 µg/mL (≈ 3.37 µM) | 5.51 µg/mL (≈ 7.84 µM) | IC50 [3]: 2.5 µg/mL (≈ 3.56 µM); IC90 [3]: 4.64 µg/mL (≈ 6.6 µM); IC50 (PC-3 (prostate cancer)): 3.68 µg/mL (≈ 5.24 µM); IC90 (PC-3 (prostate cancer)): 7.59 µg/mL (≈ 10.8 µM); IC50 [11]: 0.56 µg/mL (≈ 0.797 µM); IC90 [11]: 2.83 µg/mL (≈ 4.03 µM); IC50 [12]: 0.18 µg/mL (≈ 0.256 µM); IC90 [12]: 1.22 µg/mL (≈ 1.74 µM)
COc1ccc2cc1Oc1ccc(cc1)C[C@H]1c3cc(c(OC)cc3CCN1C)Oc1c(OC)c(OC)c(CNCc3ccccn3)c3c1[C@H](C2)N(C)CC3 [BS-TE-352] | 4.38 µg/mL (≈ 5.9 µM) | > 10 µg/mL | 1.35 µg/mL (≈ 1.82 µM) | 4.58 µg/mL (≈ 6.16 µM) | 3.61 µg/mL (≈ 4.86 µM) | 4.98 µg/mL (≈ 6.7 µM) | 1.4 µg/mL (≈ 1.88 µM) | 4.85 µg/mL (≈ 6.53 µM) | 1.26 µg/mL (≈ 1.7 µM) | 4.35 µg/mL (≈ 5.86 µM) | 3.06 µg/mL (≈ 4.12 µM) | 9.92 µg/mL (≈ 13.4 µM) | 5.79 µg/mL (≈ 7.79 µM) | 9 µg/mL (≈ 12.1 µM) | 1.1 µg/mL (≈ 1.48 µM) | 4.84 µg/mL (≈ 6.51 µM) | 1.31 µg/mL (≈ 1.76 µM) | 4.5 µg/mL (≈ 6.06 µM) | 1.38 µg/mL (≈ 1.86 µM) | 4.74 µg/mL (≈ 6.38 µM) | IC50 (PC-3 (prostate cancer)): 4.53 µg/mL (≈ 6.1 µM); IC90 (PC-3 (prostate cancer)): 7.51 µg/mL (≈ 10.1 µM); IC50 [9]: 1.05 µg/mL (≈ 1.41 µM); IC90 [9]: 3.88 µg/mL (≈ 5.22 µM); IC50 [11]: 0.63 µg/mL (≈ 0.848 µM); IC90 [11]: 3 µg/mL (≈ 4.04 µM); IC50 [12]: 0.09 µg/mL (≈ 0.121 µM); IC90 [12]: 0.76 µg/mL (≈ 1.02 µM)
